Test results as given in patent US4898975A, “Water soluble organic ammonium per halides” (Great Lakes Chemical Corporation, priority 1989, dated 1990).
Where two headings read alike, the source gives them in different places.

Columns and labels:
[1] = assay type: physicochemical; details: closed bottle
Experimental: In order to determine the shelf life stability of the perbromide solutions, a series of studies were conducted to determine the percent bromine lost over time. The following tables shown below list the perbromides studied and the percent oxidizable bromine lost over time. The perbromides studied were kept in closed bottles in ambient conditions (Table 7) and at 50° C.

[2] = Vapor pressure of aqueous organic ammonium perbromides (isoteniscope); assay type: physicochemical; details: for Vp: 26° C. (Table 9)
Experimental: The vapor pressures of the aqueous organic ammonium perbromides were measured using an isoteniscope as described by Farrington, et al. [Farrington, D.; Alberti, R.; William, S.; Corwell, C.; Bender, P; and Harriman, S. Experimental Physical Chemistry, Experiment 17, pp. 164-165, 7th Edition, McGraw Hill Publishing Co., New York, 1976].

[3] = Titration of oxidizable bromine (Standard Methods, Method 408A); assay type: physicochemical; details: for Ox. Br2: of the sample used for vapor pressure (Table 9)
physchem = details: water
[4] = Water solubility of perbromides
[5] = 50° C., time elapsed 40 (months)
[6] = 50° C., time elapsed 40 (months), 1.752e+06 min
[7] = completely soluble perbromides, aqueous solution (Table 1)
[8] = partially soluble perbromides, separated liquid phase (Table 2)
[9] = concentrated and anhydrous perbromides (Table 4)
[10] = higher aqueous ethanolammonium perbromides (Table 6)

NCCO [Compound 1, Ethanolammonium Perbromide]
Initial Ox. Br2 ([1]; 50° C.): 40.8 % by Weight | Change in % Br2 [1, 5]: 1.8% | Final Ox. Br2 [1, 5]: 39.0 % by Weight | Relative Change in % Br2 [1, 6]: 4.4% | Change in % Br2 ([1]; ambient temperature, 24 months): 1.6% | Final Ox. Br2 ([1]; ambient temperature, 24 months): 38.5 % by Weight | Relative Change in % Br2 ([1]; ambient temperature, 24 months, 1.0512e+06 min): 4.0% | Initial Ox. Br2 ([1]; ambient temperature): 40.1 % by Weight

CCCN [Compound 3, Propylammonium Perbromide]
Vp [2]: 36 mmHg | Tit. Ox. Br2 [3, 7]: 39.3 % by Weight

OCCNCCO [Compound 4, Diethanolammonium Perbromide]
Initial Ox. Br2 ([1]; 50° C.): 37.0 % by Weight | Change in % Br2 [1, 5]: 7.0% | Final Ox. Br2 [1, 5]: 30.0 % by Weight | Relative Change in % Br2 [1, 6]: 18.9% | Vp [2]: 49 mmHg

CNCCO [Compound 5, Methylethanolammonium Perbromide]
Vp [2]: 28 mmHg | Tit. Ox. Br2 [3, 7]: 39.3 % by Weight | Ox. Br2 [3]: 39.3 % by Weight

CCNCCO [Compound 6, Ethylethanolammonium Perbromide]
Tit. Ox. Br2 [3, 7]: 37.7 % by Weight

CN(C)CCO [Compound 7, Dimethylethanolammonium Perbromide, reference compound]
Vp [2]: 30 mmHg

CCCCCCN [Compound 8, Hexylammonium Perbromide]
Tit. Ox. Br2 [3, 7]: 36.1 % by Weight

CCCCCCCCN [Compound 9, Octylammonium Perbromide]
Tit. Ox. Br2 [3, 7]: 34.7 % by Weight

CCCNCCC [Compound 10, Dipropylammonium Perbromide]
solubility (physchem): 100 mg/mL | Tit. Ox. Br2 [3, 8]: 45.1 % by Weight

CCCCNCCCC [Compound 11, Dibutylammonium Perbromide]
Change in % Br2 ([1]; ambient temperature, 16 months): 2.1% | Final Ox. Br2 ([1]; ambient temperature, 16 months): 41.1 % by Weight | Relative Change in % Br2 ([1]; ambient temperature, 16 months, 700800 min): 4.9% | Initial Ox. Br2 ([1]; ambient temperature): 43.2 % by Weight | solubility [4]: 10 mg/mL | Vp [2]: 38 mmHg | Ox. Br2 [3]: 43.3 % by Weight | Tit. Ox. Br2 [3, 8]: 40.9 % by Weight

CCCCN(CCCC)CCCC [Compound 12, Tributylammonium Perbromide, reference compound]
Vp [2]: 28 mmHg | Ox. Br2 [3]: 37.5 % by Weight | Tit. Ox. Br2 [3, 8]: 36.0 % by Weight

CCN(CC)CCO [Compound 14, Diethylethanolammonium]
Solubility in water (in words) [4]: only sparingly soluble in water | solubility [4]: 1 mg/mL | Tit. Ox. Br2 [3, 8]: 42.3 % by Weight

NCCCCCCN [Compound 16, 1,6-Hexanediammonium]
solubility (physchem): 500 mg/mL | Tit. Ox. Br2 ([3]; perbromides precipitated out of aqueous solution (Table 3)): 51.8 % by Weight

NCCO [Compound 18, Ethanolammonium Perbromide]
Tit. Ox. Br2 [3, 9]: 51.8 % by Weight

CCCN [Compound 19, Propylammonium Perbromide]
Tit. Ox. Br2 [3, 9]: 53.2 % by Weight

OCCNCCO [Compound 20, Diethanolammonium Perbromide]
Tit. Ox. Br2 [3, 9]: 45.3 % by Weight

NCCO [Compound 26]
Tit. Ox. Br2 [3, 10]: 52.6 % by Weight

NCCO [Compound 27]
Vp [2]: 116 mmHg | Tit. Ox. Br2 [3, 10]: 57.7 % by Weight | Ox. Br2 [3]: 57.7 % by Weight

NCCO [Compound 28]
Tit. Ox. Br2 [3, 10]: 63.9 % by Weight

NCCO [Compound 29]
Tit. Ox. Br2 [3, 10]: 72.6 % by Weight

BrBr [Compound 35, Bromine, reference compound]
vapor pressure ([2]; 26° C.): approximately 220 mm Hg | Vp [2]: 223 mmHg | Ox. Br2 [3]: 100 % by Weight

Ethanolammonium Perbromide [Compound 21]
Relative Change in % Br2 ([1]; 29200 h): 3.1% | Relative Change in % Br2 ([1]; ambient, 17520 h): 2.0%

NaBr3 [Compound 33, reference compound]
vapor pressure [2]: 140 mm Hg | Vp [2]: 145 mmHg | Ox. Br2 [3]: 37.9 % by Weight

Propylammonium Perbromide [Compound 22]
Relative Change in % Br2 ([1]; 29200 h): 2.7% | Relative Change in % Br2 ([1]; ambient, 17520 h): 2.3%
